One assay has as its target PknB (Mycobacterium tuberculosis, UniProt P9WI81).
A further assay concerns the target PknA-core (PknA-338) (Mycobacterium tuberculosis, UniProt P9WI83).

Consider one compound from paper PMC5686395, “Eukaryotic-type serine/threonine kinase mediated phosphorylation at Thr^169 perturbs mycobacterial guanylate kinase activity” (Bioscience Reports, 2017).

Molecules are shown by their SMILES.

Sequence of PknB (P9WI81 2-626): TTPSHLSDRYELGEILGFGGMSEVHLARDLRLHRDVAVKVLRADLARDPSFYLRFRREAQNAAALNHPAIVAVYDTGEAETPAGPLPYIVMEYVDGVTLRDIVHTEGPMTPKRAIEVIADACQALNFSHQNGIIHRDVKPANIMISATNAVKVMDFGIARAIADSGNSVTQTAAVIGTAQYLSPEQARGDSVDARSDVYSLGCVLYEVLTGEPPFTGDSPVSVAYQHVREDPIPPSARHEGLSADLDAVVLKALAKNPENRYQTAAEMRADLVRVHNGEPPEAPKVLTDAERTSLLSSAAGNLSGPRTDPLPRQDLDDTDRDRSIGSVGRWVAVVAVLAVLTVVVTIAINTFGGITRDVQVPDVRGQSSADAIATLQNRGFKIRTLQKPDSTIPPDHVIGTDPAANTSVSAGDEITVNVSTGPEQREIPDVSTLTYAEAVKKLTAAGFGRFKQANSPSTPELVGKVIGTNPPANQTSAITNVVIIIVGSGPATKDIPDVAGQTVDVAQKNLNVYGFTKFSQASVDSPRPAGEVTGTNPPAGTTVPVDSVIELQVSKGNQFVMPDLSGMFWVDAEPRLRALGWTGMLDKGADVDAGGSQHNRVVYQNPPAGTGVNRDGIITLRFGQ
Sequence of PknA-core (PknA-338) (P9WI83 1-338): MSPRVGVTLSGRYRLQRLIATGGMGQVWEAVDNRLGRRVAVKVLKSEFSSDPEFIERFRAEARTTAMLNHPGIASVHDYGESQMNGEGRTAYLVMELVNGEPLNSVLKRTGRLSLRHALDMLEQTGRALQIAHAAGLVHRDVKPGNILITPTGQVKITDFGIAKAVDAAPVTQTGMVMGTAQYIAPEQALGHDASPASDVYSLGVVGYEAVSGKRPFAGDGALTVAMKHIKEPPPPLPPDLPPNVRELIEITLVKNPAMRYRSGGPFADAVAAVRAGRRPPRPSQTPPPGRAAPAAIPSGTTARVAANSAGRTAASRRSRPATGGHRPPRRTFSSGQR

Take `Nc1ncnc2c1ncn2[C@@H]1O[C@H](COP(=O)(O)OP(=O)(O)OP(=O)(O)O)[C@@H](O)[C@H]1O` [[γ-32P] ATP]: the “in vitro kinase assay, SDS/PAGE and autoradiography” value was “PknB, another essential mycobacterial kinase, instead of PknA in the assay yielded weak p-mGmk” at PknB and “its incubation with PknA exhibited phosphorylation” at PknA-core (PknA-338).
